Data on two molecules can be found in patent US4451448A, “1-Substituted tricyclic quinazolinones useful as tranquilizers” (Sandoz, Inc., priority 1982, dated 1984).

The test system of this assay is isolated calf brain benzodiazepine receptors. In words: Flunitrazepam Receptor Binding Assay (FBA TEST No. 1), displacement of 3H-flunitrazepam. Conditions: compound at final concentration of 1×10^-6 M; calf caudate tissue; 1 µM. In general terms: In a radioligand displacement assay an active substance lowers the binding of a labelled ligand.

For the molecule `C=CCN1CCn2c1nc1ccc(Cl)cc1c2=O` [Example 1, 1-allyl-7-chloro-2,3-dihydro-imidazo[2,1-b]quinazolin-5(1H)-one], the “percent specifically bound 3H-flunitrazepam compared to control” value was 13 % of control.
In the case of `O=c1c2cc(Cl)ccc2nc2n1CCN2C1CCCC1` [Example 2, 7-chloro-1-cyclopentyl-2,3-dihydro-imidazo[2,1-b]quinazolin-5(1H)-one], the “percent specifically bound 3H-flunitrazepam compared to control” value is on record as 19 % of control.
